{"source": "patent EP3444615A1", "about": "“METHODS AND COMPOSITIONS FOR DIAGNOSTIC EVALUATION AND THERAPEUTIC CORRECTION OF THE NO-HAEM SIGNALLING PATHWAY(S) IN ANIMALS AND HUMANS” (Freiberg Instruments GmbH, priority 2017, dated 2019)", "key": {"[1]": {"system": "isolated rat mesenteric arteries", "test": "vasodilation in isolated mesenteric arteries"}, "[2]": {"system": "mouse femoral artery", "test": "isometric tension study, wire myograph, pre-contracted artery rings", "conditions": "Fig. 7", "protocol": "For the pilot experiment a male Swiss mouse (35 g) was sacrificed under ether anaesthesia. Femoral artery was isolated and cleaned from the adhering fat and connective tissue. Artery rings (2 mm) with endothelium were mounted in the organ chambers filled with Krebs solution continuously bubbled with 95% 02/ 5% CO2 at 37°C. The composition of the solution was as following: 119 mM NaCl, 4.7 mM KCI, 14.9 mM NaHCO3, 1.2 mM MgSO4.7H2O, 2.5 mM CaCl2, 1.18 mM KH2PO4, and 5.5 mM glucose; pH 7.4. Vascular reactivity was measured by the monitoring the changes in isometric tension using a wire myograph (Danish Myo Technology, Arhus, Denmark). After pre-contraction of arterial rings with 1µM 5-HT (serotonin; Sigma-Aldrich), the cumulative concentrations of NO-ferrohaem were added. In the end of experiment, an inhibitor of the soluble guanylate cyclase (ODQ; 1µM) was added."}, "[3]": {"system": "anesthetized Wistar rat", "test": "blood pressure study, subcutaneous injection", "type": "in vivo", "conditions": "after injection of sGC inhibitor methylene blue; Fig. 8", "protocol": "For the pilot experiment, a male Wistar rat weighing 350g from Janvier Labs (Le Genest-Saint-Isle, France) was used. Rat was anaesthetised with isoflurane 1-2% (Baxter S.A.S, Maurepas, France) and analgesia was ensured by sufentanil (Mylan, Pittsburgh PA, USA) (0.1 µg/kg of body weight) administered subcutaneously. Animal was tracheotomised and lungs ventilated throughout the experiment. The ventilator (Harvard Rodent Ventilator 683, Harvard Instruments, South Natick, MA, USA) was set to maintain a PaCO2 of 40 mmHg and oxygen was added to maintain a PaO2 of 100 mmHg. The left femoral artery was used to measure mean arterial pressure (MAP) and heart rate (HR). The rectal temperature was continuously monitored. The NO-ferrohaem was injected at dose 2µmol/kg (s.c.) before and after the injection of methylene blue (1 µmol/kg; s.c.). In the end of experiment rat was euthanized using the lethal dose of Pentothal (100 mg/kg; i.v.)."}, "[4]": {"system": "anesthetized rats", "test": "blood pressure after intravenous bolus injection", "type": "in vivo", "conditions": "10 nmol/kg"}, "[5]": {"system": "human platelet-rich plasma (PRP)", "test": "U46619-induced platelet aggregation in platelet-rich plasma (aggregometer)", "type": "cell-based", "protocol": "Human venous blood was collected into a plastic polypropylene syringe containing sodium citrate. […] Platelet-rich-plasma (PRP) was prepared by centrifugation of the blood at 180g for 10 minutes at room temperature. The cloudy supernatant containing platelets was carefully removed with a pipette and transferred into a clean polypropylene tube and capped. Platelets were used for the experiments within 3 hr after blood collection. Platelet function studies were performed using a Dual Channel Aggregometer (Chronolog, Havertown). The PRP was adjusted to a platelet count of 200-300x 10^6/ml. Platelet aggregation was induced by the addition of a synthetic thromboxane A2 receptor agonist, U46619 (Cayman Chemical, Ann Arbor). PRP was placed in the aggregometer cuvette and continuously stirred at the rate of 1000 rpm. Platelet aggregation was determined by measuring the change in the optical density after addition of 1µM U46619. […]"}, "[6]": {"target": "T1, isolated sGC (Bos taurus, UniProt P16068)", "T1 construct": "host or cells: bovine lung (from a cited title)", "T1 sequence (P16068 1-619)": "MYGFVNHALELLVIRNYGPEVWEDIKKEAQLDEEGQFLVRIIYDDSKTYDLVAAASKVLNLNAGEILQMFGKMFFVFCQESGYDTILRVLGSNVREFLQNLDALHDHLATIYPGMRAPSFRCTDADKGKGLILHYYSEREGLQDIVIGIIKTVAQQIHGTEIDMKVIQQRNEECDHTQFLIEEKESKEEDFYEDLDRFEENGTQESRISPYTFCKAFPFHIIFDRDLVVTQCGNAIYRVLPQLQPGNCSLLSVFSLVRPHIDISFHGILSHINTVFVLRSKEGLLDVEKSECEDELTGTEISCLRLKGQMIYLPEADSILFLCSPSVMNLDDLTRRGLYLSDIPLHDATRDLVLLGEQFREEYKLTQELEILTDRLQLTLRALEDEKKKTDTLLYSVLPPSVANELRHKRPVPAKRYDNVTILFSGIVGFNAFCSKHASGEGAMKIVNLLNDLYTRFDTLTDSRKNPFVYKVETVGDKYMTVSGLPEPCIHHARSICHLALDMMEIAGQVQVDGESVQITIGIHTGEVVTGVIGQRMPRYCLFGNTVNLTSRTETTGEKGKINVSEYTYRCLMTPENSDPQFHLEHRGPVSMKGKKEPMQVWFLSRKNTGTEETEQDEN", "T1 sequence (P19687 1-691 partner)": "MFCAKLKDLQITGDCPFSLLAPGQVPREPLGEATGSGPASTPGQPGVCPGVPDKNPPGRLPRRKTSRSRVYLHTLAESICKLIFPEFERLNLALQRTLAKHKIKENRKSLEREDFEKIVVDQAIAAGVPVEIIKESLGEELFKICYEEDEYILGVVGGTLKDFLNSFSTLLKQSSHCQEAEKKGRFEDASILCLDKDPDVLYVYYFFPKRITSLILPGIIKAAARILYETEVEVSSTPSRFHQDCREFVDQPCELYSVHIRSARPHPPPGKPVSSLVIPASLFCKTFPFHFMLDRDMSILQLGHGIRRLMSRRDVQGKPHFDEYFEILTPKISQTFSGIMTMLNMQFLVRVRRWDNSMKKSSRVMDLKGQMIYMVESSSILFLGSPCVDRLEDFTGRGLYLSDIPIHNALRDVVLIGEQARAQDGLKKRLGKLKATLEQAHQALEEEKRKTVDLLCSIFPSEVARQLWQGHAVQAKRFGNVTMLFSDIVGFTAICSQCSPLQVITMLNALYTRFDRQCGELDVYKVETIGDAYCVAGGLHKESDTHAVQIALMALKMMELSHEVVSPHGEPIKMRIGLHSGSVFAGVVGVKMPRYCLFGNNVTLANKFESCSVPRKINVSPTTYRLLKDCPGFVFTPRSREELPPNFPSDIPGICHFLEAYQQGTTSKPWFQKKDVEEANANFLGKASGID", "conditions": "bare ferrohaem, in contrast to NO-ferrohaem; cited from earlier work"}}}
{"smiles": "C=Cc1c(C)c2[n]3c1C=C1N=C(C=C4N=C(C=c5c(C)c(C=C)c([n]5[Fe]3[N]=O)=C2)C(C)=C4CCC(=O)O)C(CCC(=O)O)=C1C", "note": "[NO-ferrohaem, nitrosylated ferrous protoporphyrin IX]", "values": [{"measurement": "vasodilating activity", "setting": "[1]", "value": "direct long-lasting vasodilating activity"}, {"measurement": "relaxation of pre-contracted arteries", "setting": "[2]; 5-HT (1µM)-pre-contracted, 100nM-100µM concentration range", "value": "concentration-dependent relaxation"}, {"measurement": "effect of ODQ on the NO-ferrohaem-induced relaxation", "setting": "[2]; plus sGC inhibitor ODQ (1µM)", "value": "completely reversed"}, {"measurement": "effect of methylene blue on hypotensive activity", "setting": "[3]", "value": "prevented this NO-ferrohaem activity"}, {"measurement": "blood pressure effect", "setting": "[4]", "value": "sGC-inhibitor-sensitive hypotension"}, {"measurement": "U46619-induced platelet aggregation", "setting": "[5]; 1 nM, 10nM or 100nM added 30 seconds before 1µM U46619, Fig. 6", "value": "concentration-dependently prevented the aggregation"}, {"measurement": "inhibition of thromboxane-induced platelet aggregation", "setting": "[5]; at low nM concentrations, human platelet-rich plasma", "value": "efficiently inhibits"}]}
{"smiles": "C=Cc1c(C)c2[n]3c1C=C1N=C(C=C4N=C(C=c5c(C)c(C=C)c([n]5[Fe]3)=C2)C(C)=C4CCC(=O)O)C(CCC(=O)O)=C1C", "note": "[ferrohaem]", "values": [{"measurement": "effect on basal activity of isolated sGC", "setting": "[6]", "value": "inhibits the basal activity of isolated sGC"}]}
